These results are taken from patent US20110052643A1, “COMPOUNDS FOR INFLAMMATION AND IMMUNE-RELATED USES” (Synta Pharmaceuticals Corp., priority 2008, published 2011).

Broadly, the IC50 is the concentration at which inhibition is half-maximal.

The assay relates to IL-2 production. The experiment in a line: Inhibition of IL-2 production in PHA-activated Jurkat cells (ELISA). In kind it is cell-based. The conditions noted are these: Homo sapiens, 20 h, PHA 2.5 μg/mL, IL-2 ELISA, values given as ranges. On the procedure: Jurkat cells were placed in a 96 well plate (0.5 million cells per well in 1% FBS medium) then a test compound of this invention was added at different concentrations. After 10 minutes, the cells were activated with PHA (final concentration 2.5 μg/mL) and incubated for 20 hours at 37° C. under CO2. The final volume was 200 μL. Following incubation, the cells were centrifuged and the supernatants collected and stored at −70° C. prior to assaying for IL-2 production. A commercial ELISA kit (IL-2 Eli-pair, Diaclone Research, Besancon, France) was used to detect production of IL-2, from which dose response curves were obtained. The IC50 value was calculated as the concentration at which 50% of maximum IL-2 production after stimulation was inhibited versus a non-stimulation control. Inhibition of other cytokines, such as IL-4, IL-5, IL-13, GM-CSF, TNF-α, and INF-γ, can be tested in a similar manner using a commercially available ELISA kit for each cytokine.
`O=C(Nc1c(F)cccc1F)c1cc2c(s1)-c1cc(Br)ccc1CCC2` [Compound 1] displayed an IC50 not above 30 nM.

The compound `O=C(Nc1c(F)cccc1F)c1cnc2c(c1)CCCc1ccc(-c3cccnc3)cc1-2` [Compound 45] gave an IC50 of 100 to 250 nM.

`CCc1cn(-c2ccc3c(c2)-c2ncc(NC(=O)c4c(F)cccc4F)nc2CCC3)cn1` [Compound 134] gave an IC50 not above 30 nM.

On to `Cc1cnccc1NC(=O)c1nc2c(s1)-c1cc(-n3ccnc3)ccc1CCC2` [Compound 132], for which the IC50 was 100 to 250 nM.

In turn, `Cc1nccn1-c1ccc2c(c1)-c1sc(C(=O)Nc3c(F)cccc3F)nc1CCC2` [Compound 115] yielded an IC50 of 250 to 500 nM.

Compound `Cc1nc2c(cc1C(=O)Nc1c(F)cccc1F)CCCc1ccc(-c3cccnc3)cc1-2` [Compound 48] came in with an IC50 of 100 to 250 nM.

`COc1ccc2c(c1)CCCc1sc(NC(=O)c3c(F)cccc3F)nc1-2` [Compound 42]: the IC50 was more than 1000 nM.

Turning to `O=C(Nc1c(F)cccc1F)c1nc2c(s1)-c1cc(-n3cnnc3)ccc1CCC2` [Compound 121], the IC50 was 30 to 100 nM.

The compound `Cc1cn(-c2ccc3c(c2)-c2sc(C(=O)Nc4c(F)cccc4F)nc2CCC3)cn1` [Compound 117] had an IC50 of 30 to 100 nM.

`O=C(Nc1c(F)cccc1F)c1cc2c(s1)-c1cc(-c3cccnc3)ccc1CCC2` [Compound 2] displayed an IC50 not above 30 nM.

The compound `O=C(Nc1ccc(F)cc1F)c1nc2c(s1)-c1cc(-n3ccnc3)ccc1CCC2` [Compound 122] came in with an IC50 of 100 to 250 nM.

The compound `O=C(Nc1c(F)cccc1F)c1nc2c(s1)-c1cc(-n3ccnc3)ccc1CCC2` [Compound 113] gave a half-maximal inhibitory concentration (IC50) not above 30 nM.

In the case of `O=C(Nc1c(F)ccc(F)c1F)c1nc2c(s1)-c1cc(-n3ccnc3)ccc1CCC2` [Compound 126], the IC50 is not above 30 nM.

With `O=C(Nc1cnc2c(n1)CCCC1=C2CN(c2nccs2)CC1)c1c(F)cccc1F` [Compound 91], the IC50 fell in the range of 30 to 100 nM.

As to `O=C(Nc1nc2c(s1)CCCc1ccc(Br)cc1-2)c1c(F)cccc1F` [Compound 43], the IC50 was more than 1000 nM.

In turn, `O=C(Nc1ccc(F)c(F)c1F)c1nc2c(s1)-c1cc(-n3ccnc3)ccc1CCC2` [Compound 124] showed an IC50 of 250 to 500 nM.

In the case of `O=C(Nc1c(F)cc(F)cc1F)c1nc2c(s1)-c1cc(-n3ccnc3)ccc1CCC2` [Compound 130], the IC50 was in the range of 30 to 100 nM.
